Data: patent US10765687B2, “Methods and compounds to inhibit enveloped virus release” (Northwestern University, priority 2012, dated 2020)
Several values for one entry are separate records, joined by “and”; a condition that tells them apart may be missing. Identical values can stand only once. Like-named read-outs stand apart in the source and are kept apart here.

Columns and labels:
COS-1 cells [1] = conditions: K21 100 μM, N20 20 μM; for Cytotoxicity, average of the independent experiments: average in parentheses, DMSO 21%; for Cytotoxicity (blue cells/total cells x 100): single count, DMSO 24%, 18%
Protocol: The standard trypan blue assay, where dead cells are blue when visualized under a light microscope, was used to determine the percent of dead cells in the culture. Briefly, cells from a well of DMSO-treated, K21-treated and N20-treated samples were dislodged from the well with a stream of 1 ml PBS, collected, pelleted at 200 rpm for 2 min, and suspended in 300 μl trypsin-EDTA, incubated at 37° C. for 30 min. A diluted cell suspension was prepared by mixing 200 μl of the trypsin-treated cell suspension and 800 μl of PBS was used for the assay. For the assay itself: from the 1 ml of diluted cell suspension, 50 μl was taken an placed on paraffin and to this was mixed in 50 μl of 0.4% Trypan Blue dye in PBS, after exactly 2 minutes later, the mixture was loaded on a hematocytometer. The hematocytometer was placed on the light microscope stage and a blue cell count and an all cells count (blue and not blue cells) obtained. Two 50 μl aliquots were counted per sample.

293 cells [2] = system: 293 cells
HIV-1 [3] = test: Specific infectivity by MAGI assay; assay type: cell-based; conditions: versus DMSO controls
Protocol: The amount of infectious virus normalized to ng of p24 obtained from the ELISA assay in the tissue cultures was determined by multinuclear activation of a galactosidase indicator (MAGI) assay. In this assay, infectious unit is scored by the blue color that is assumed by infected MAGI cells (Hela cells that have been engineered to express the indicator when the infecting particle is able to simulated natural infection up until expression of HIV-1 Tat).

HIV-1 [4] = test: Cell-based inhibition assay in transfected COS-1 cells, ELISA p24 capture assay of tissue culture media; conditions: K21 100 μM, N20 20 μM, 24-hr treatment
Protocol: COS-1 cells were seeded on twelve-well plates and grown in 1 ml of DMEM with 10% fbs and 1% Penicillin/Streptomycin. The following day, well were confluency was ˜60% were selected for co-transfection with an NL4-3 derived construct (pdeltaEnv) and pIIIEnv for expression of HIV-1 virus-encoded proteins. Inhibitor treatment was done on two sets of transfected cells: one, at 5 hr post-transfection and the other, at 24 hours post-transfection. In each case, the tissue culture media was removed and replaced with treatment Nedd4 inhibitor (100 μM final concentration for K21 and 20 μM final concentration for N20) or DMSO control (1% final concentration) in DMEM with 10% FBS, 1% Penicillin/Streptomycin, 5 mM MgCl2, and 0.5 mM CaCl2. After a 24-hr treatment period, the tissue culture media was collected, cleared of debris by running through a 0.45 um syringe filter and analyzed for amount of virus particles by Elisa p24 capture assay.
At 100 μM, K21 was inhibitory to virus particle release. […] This was true whether the inhibitor was added at 5 hrs post-transfection or at 24 hrs post transfection. At 20 μM, N20 was also exerted an inhibitory effect on virus particle release but it was different from that of K21.

COS-1 cells [5] = test: Cell growth based on cell lysate actin levels (Western); conditions: versus DMSO-treated
Protocol: The levels of actin of cell lysates prepared from DMSO-treated, […]-treated and N20-treated cells were determined by SDS-PAGE followed by Western analysis where the immunoblot were probed with mouse anti-actin antibody.

293 cells [6] = test: Toxicity of inhibitor concentrations to cultured cells of the VLP release assay; conditions: concentrations of FIG. 6A
[7] = inhibitor added 5 hrs post-transfection
[8] = inhibitor added 24 hrs post-transfection

SMILES | Cytotoxicity, average of the independent experiments (COS-1 cells [1]) | Cytotoxicity (blue cells/total cells x 100) (COS-1 cells [1]; listed as K21, hydrochloride) | Cell toxicity of inhibitor concentrations (293 cells [2]) | Counts of blue cells per ng p24 (specific infectivity) (HIV-1 [3]) | Amount of virus particle detected in tissue culture media (HIV-1 [4]; [7]) | Amount of virus particle detected in tissue culture media (HIV-1 [4]; [8]) | Intensity of actin bands of cell lysates (COS-1 cells [5]) | Cytotoxicity (blue cells/total cells x 100) (COS-1 cells [1]; listed as N20) | Cell toxicity of inhibitor concentrations (293 cells [6])
Cl.NC(CO)C(=O)NNCc1ccc(O)c(O)c1O (racemic) [Benserazide Hydrochloride, (RS)-2-amino-3-hydroxy-N′-(2,3,4-trihydroxybenzyl) propanehydrazide hydrochloride] | (31%) | 34% and 28% | not cell toxic | comparable | reduction in the amount of virus particle detected | reduction in the amount of virus particle detected | essentially comparable for all samples | – | –
CN(C)[C@@H]1C(O)=C(C(N)=O)C(=O)[C@@]2(O)C(=O)C3=C(O)c4c(O)cccc4[C@@](C)(O)[C@H]3[C@H](O)[C@@H]12 [Oxytetracycline, (4S,4aR,5S,5aR,6S,12aS)-4-(dimethylamino)-3,5,6,10,11,12a-hexahydroxy-6-methyl-1,12-dioxo-1,4,4a,5,5a,6,12,12a-octahydrotetracene-2-carboxamide] | (32%) | – | – | comparable | reduction in the amount of virus particle detected | reduction was not seen | essentially comparable for all samples | 29% and 35% | not cell toxic
